{
  "source": "patent US8691865B2",
  "about": "(AbbVie Inc., priority 2008, dated 2014)",
  "target": "human Cav2.2 (Homo sapiens, UniProt Q00975)",
  "sequence (Q00975 whole entry)": "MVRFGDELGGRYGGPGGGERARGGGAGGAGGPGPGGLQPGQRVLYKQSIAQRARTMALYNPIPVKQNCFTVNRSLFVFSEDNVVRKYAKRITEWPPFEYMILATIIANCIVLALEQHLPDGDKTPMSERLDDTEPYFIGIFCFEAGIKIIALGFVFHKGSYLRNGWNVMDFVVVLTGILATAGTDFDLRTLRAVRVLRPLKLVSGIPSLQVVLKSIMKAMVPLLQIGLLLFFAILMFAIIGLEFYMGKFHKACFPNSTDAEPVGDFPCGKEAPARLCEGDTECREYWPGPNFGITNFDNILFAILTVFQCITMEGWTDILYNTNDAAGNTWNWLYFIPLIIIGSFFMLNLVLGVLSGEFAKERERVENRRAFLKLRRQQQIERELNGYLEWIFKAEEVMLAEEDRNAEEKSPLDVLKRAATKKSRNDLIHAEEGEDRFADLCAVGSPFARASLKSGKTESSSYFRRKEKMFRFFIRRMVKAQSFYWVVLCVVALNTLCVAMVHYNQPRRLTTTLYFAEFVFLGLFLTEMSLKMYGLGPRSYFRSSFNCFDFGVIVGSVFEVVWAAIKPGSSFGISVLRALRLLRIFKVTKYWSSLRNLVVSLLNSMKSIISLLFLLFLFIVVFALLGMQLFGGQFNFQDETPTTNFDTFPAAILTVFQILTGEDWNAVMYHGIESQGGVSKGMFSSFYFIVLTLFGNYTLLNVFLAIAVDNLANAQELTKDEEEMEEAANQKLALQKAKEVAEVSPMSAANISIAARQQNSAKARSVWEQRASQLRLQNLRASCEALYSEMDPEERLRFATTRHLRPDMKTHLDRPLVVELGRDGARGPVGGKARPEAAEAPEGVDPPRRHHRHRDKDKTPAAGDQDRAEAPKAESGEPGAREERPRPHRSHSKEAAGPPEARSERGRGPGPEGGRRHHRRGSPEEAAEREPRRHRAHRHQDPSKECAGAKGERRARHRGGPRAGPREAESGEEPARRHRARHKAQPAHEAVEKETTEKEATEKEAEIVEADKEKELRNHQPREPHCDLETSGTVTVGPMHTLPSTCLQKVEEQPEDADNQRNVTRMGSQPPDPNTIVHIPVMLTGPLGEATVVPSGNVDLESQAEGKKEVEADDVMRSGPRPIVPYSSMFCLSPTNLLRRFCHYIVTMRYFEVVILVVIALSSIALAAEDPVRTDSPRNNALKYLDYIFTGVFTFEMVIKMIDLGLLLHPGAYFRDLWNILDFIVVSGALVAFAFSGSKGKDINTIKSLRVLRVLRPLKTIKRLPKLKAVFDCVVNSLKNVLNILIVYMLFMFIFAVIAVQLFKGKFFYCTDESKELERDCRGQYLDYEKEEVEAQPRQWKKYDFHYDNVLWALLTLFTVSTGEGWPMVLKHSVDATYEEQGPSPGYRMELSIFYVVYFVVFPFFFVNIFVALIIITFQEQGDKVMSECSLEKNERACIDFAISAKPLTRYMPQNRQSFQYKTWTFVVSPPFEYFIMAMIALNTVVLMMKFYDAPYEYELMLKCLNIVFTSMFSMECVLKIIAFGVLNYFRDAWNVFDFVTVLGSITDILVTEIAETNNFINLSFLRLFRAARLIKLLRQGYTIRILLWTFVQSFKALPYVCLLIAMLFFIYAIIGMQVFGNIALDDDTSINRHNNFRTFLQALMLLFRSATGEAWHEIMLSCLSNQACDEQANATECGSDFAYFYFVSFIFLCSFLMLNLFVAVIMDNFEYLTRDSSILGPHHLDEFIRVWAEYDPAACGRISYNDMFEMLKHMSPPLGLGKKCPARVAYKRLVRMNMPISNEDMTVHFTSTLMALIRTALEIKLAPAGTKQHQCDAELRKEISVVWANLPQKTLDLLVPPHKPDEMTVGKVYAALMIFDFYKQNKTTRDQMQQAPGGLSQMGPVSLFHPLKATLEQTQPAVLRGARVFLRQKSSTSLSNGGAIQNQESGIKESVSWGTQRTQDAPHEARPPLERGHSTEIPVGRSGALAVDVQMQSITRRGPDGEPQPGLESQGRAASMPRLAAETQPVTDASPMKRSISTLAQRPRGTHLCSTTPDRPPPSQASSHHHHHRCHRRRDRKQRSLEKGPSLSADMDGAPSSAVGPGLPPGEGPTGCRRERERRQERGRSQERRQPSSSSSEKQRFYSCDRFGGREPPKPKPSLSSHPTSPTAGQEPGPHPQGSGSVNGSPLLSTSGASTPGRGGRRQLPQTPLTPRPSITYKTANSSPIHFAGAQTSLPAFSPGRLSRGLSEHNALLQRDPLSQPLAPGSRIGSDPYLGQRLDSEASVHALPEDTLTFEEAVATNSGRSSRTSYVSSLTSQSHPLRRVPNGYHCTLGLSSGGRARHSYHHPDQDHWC",
  "sequence (P54289 25-956 partner limits assumed)": "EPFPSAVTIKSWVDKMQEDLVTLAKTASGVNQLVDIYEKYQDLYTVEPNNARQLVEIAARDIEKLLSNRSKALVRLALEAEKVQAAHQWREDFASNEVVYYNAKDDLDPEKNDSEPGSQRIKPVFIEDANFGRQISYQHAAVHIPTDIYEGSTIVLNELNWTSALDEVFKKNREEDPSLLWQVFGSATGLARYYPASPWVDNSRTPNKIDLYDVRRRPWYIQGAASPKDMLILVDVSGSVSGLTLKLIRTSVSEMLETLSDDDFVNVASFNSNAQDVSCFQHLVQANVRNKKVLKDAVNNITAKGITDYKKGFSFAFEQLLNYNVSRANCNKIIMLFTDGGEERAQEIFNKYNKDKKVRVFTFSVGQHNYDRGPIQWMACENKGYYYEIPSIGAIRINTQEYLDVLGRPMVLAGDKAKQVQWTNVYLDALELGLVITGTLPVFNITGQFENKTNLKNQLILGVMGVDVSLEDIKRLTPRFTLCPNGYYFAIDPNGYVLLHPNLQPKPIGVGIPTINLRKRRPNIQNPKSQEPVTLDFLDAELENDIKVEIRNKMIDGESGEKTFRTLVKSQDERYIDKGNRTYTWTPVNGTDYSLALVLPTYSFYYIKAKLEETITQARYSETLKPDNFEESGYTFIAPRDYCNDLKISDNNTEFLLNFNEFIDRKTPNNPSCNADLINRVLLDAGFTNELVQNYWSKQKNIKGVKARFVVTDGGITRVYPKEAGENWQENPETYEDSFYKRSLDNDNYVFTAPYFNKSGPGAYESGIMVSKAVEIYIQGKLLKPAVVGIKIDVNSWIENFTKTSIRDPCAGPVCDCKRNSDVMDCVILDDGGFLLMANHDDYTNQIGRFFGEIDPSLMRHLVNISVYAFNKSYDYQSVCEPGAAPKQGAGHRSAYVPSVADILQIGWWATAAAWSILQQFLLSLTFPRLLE",
  "sequence (P54289 957-1103 partner limits assumed)": "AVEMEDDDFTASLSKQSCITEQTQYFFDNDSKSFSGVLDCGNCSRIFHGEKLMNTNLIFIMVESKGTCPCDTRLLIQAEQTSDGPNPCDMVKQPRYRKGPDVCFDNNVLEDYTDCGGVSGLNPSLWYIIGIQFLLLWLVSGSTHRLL",
  "sequence (P54284 whole entry partner)": "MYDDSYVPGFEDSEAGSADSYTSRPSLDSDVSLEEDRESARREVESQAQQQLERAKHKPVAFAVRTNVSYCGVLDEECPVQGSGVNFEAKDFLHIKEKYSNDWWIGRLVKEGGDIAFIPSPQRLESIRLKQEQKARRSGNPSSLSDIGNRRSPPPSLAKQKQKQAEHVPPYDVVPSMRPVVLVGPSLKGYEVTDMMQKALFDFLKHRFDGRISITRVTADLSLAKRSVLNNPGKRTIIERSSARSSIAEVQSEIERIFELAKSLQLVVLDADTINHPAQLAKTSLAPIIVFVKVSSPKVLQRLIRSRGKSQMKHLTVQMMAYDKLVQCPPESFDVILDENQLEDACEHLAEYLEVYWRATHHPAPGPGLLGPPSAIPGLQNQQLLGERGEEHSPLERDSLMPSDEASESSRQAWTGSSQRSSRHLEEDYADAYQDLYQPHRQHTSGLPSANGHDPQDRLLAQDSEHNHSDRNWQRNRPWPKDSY",
  "test": "Assessment of calcium channel activity using FLIPR (Ca2+ influx in IMR32 cells)",
  "assay_type": "cell-based",
  "how_it_was_run": "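Human neuroblastoma IMR32 cells were seeded at 1−1.2×10^5 cells/well and cultured 48 h at 37 °C before FLIPR calcium influx measurement. Percent inhibition at each concentration was calculated against the no-inhibitor signal, and IC50 came from sigmoidal dose-response fits.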",
  "key": {"[1]": {"conditions": "read-out: IC50 (μM) or percent inhibition (* indicates 3 minute incubation, otherwise 60 minute), IC50, 60 minute pre-incubation with compound, IMR32 cells, 80 mM KCl depolarization"}},
  "note": "Where two headings read alike, the source gives them in different places.",
  "data": [
    {"compound": "FC(F)(F)c1cccc(N2C[C@H]3CC[C@H](NCc4cc5ccccc5[nH]4)[C@H]3C2)n1", "note": "[Example 612, (3aR,4S,6aS)-N-(1H-indol-2-ylmethyl)-2-[6-(trifluoromethyl)pyridin-2-yl]octahydrocyclopenta[c]pyrrol-4-amine]", "values": [
      {"measurement": "IC50", "result": 2.24, "unit": "µM"}
    ]},
    {"compound": "O=C(N[C@H]1CC[C@@H]2CN(c3cccc(C(F)(F)F)n3)C[C@@H]21)c1cc2cc(F)ccc2[nH]1", "note": "[Example 697, 5-fluoro-N-{(3aR,4S,6aS)-2-[6-(trifluoromethyl)pyridin-2-yl]octahydrocyclopenta[c]pyrrol-4-yl}-1H-indole-2-carboxamide]", "values": [
      {"measurement": "IC50", "result": 2.24, "unit": "µM"}
    ]},
    {"compound": "CCC[C@H](NC)C(=O)N[C@@H]1CC[C@H]2CN(S(=O)(=O)c3ccc(F)cc3)C[C@H]21", "note": "[Example 403, N^1-{(3aS,4R,6aR)-2-[(4-fluorophenyl)sulfonyl]octahydrocyclopenta[c]pyrrol-4-yl}-N^2-methyl-L-norvalinamide]", "values": [
      {"measurement": "IC50", "setting": "[1]", "result": 8.65, "unit": "µM"}
    ]},
    {"compound": "CC(C)C[C@H](NS(=O)(=O)C1CC1)C(=O)N[C@H]1CC[C@H]2CN(Cc3cccc(C(F)(F)F)c3)C[C@H]21", "note": "[Example 174, N^2-(cyclopropylsulfonyl)-N^1-{(3aS,4S,6aR)-2-[3-(trifluoromethyl)benzyl]octahydrocyclopenta[c]pyrrol-4-yl}-L-leucinamide]", "values": [
      {"measurement": "IC50", "setting": "[1]", "result": 1.04, "unit": "µM"}
    ]},
    {"compound": "CCC[C@H](NC)C(=O)N[C@H]1CC[C@@H]2CN(S(=O)(=O)Cc3ccc(C(F)(F)F)cc3)C[C@@H]21", "note": "[Example 549, N^2-methyl-N^1-((3aR,4S,6aS)-2-{[4-(trifluoromethyl)benzyl]sulfonyl}octahydrocyclopenta[c]pyrrol-4-yl)-L-norvalinamide]", "values": [
      {"measurement": "IC50", "setting": "[1]", "result": 2.73, "unit": "µM"}
    ]},
    {"compound": "O=C(N[C@H]1CC[C@@H]2CN(Cc3cccc(C(F)(F)F)c3)C[C@@H]21)C(C1CCCCC1)C1CCCCC1", "note": "[Example 156, 2,2-dicyclohexyl-N-{(3aR,4S,6aS)-2-[3-(trifluoromethyl)benzyl]octahydrocyclopenta[c]pyrrol-4-yl}acetamide]", "values": [
      {"measurement": "IC50", "result": 0.76, "unit": "µM"}
    ]},
    {"compound": "CCC[C@H](NC)C(=O)N[C@H]1CC[C@@H]2CN(S(=O)(=O)c3cc(C(F)(F)F)cc(C(F)(F)F)c3)C[C@@H]21", "note": "[Example 538, N^1-((3aR,4S,6aS)-2-{[3,5-bis(trifluoromethyl)phenyl]sulfonyl}octahydrocyclopenta[c]pyrrol-4-yl)-N^2-methyl-L-norvalinamide]", "values": [
      {"measurement": "IC50", "setting": "[1]", "result": 3.75, "unit": "µM"}
    ]},
    {"compound": "CCC[C@H](NC)C(=O)N[C@H]1CC[C@@H]2CN(Cc3ccccc3)C[C@@H]21", "note": "[Example 365, N^1-[(3aR,4S,6aS)-2-benzyloctahydrocyclopenta[c]pyrrol-4-yl]-N^2-methyl-L-norvalinamide]", "values": [
      {"measurement": "IC50", "result": "> 30", "unit": "µM"}
    ]},
    {"compound": "CC(C)C(C(=O)N[C@@H]1CC[C@H]2CN(Cc3ccccc3)C[C@H]21)c1ccccc1", "note": "(stereo partly drawn) [Example 18, N-[(3aS,4R,6aR)-2-benzyloctahydrocyclopenta[c]pyrrol-4-yl]-3-methyl-2-phenylbutanamide]", "values": [
      {"measurement": "IC50", "setting": "[1]", "result": 2.68, "unit": "µM"}
    ]},
    {"compound": "O=C(N[C@@H]1CC[C@H]2CN(Cc3cccc(C(F)(F)F)c3)C[C@H]21)C(c1ccc(F)cc1)c1ccc(F)cc1", "note": "(relative stereo) [Example 146, 2,2-bis(4-fluorophenyl)-N-{(3aS*,4R*,6aR*)-2-[3-(trifluoromethyl)benzyl]octahydrocyclopenta[c]pyrrol-4-yl}acetamide]", "values": [
      {"measurement": "IC50", "setting": "[1]", "result": 0.79, "unit": "µM"}
    ]},
    {"compound": "CCC[C@H](NC)C(=O)N[C@H]1CC[C@@H]2CN(S(=O)(=O)c3ccc(C#N)cc3)C[C@@H]21", "note": "[Example 536, N^1-{(3aR,4S,6aS)-2-[(4-cyanophenyl)sulfonyl]octahydrocyclopenta[c]pyrrol-4-yl}-N^2-methyl-L-norvalinamide]", "values": [
      {"measurement": "IC50", "setting": "[1]", "result": 8.37, "unit": "µM"}
    ]},
    {"compound": "CC(C)C(C(=O)N[C@H]1CC[C@@H]2CN(CCCC(c3ccc(F)cc3)c3ccc(F)cc3)C[C@@H]21)c1ccccc1", "note": "(stereo partly drawn) [Example 118, N-{(3aR,4S,6aS)-2-[4,4-bis(4-fluorophenyl)butyl]octahydrocyclopenta[c]pyrrol-4-yl}-3-methyl-2-phenylbutanamide]", "values": [
      {"measurement": "IC50", "setting": "[1]", "result": 1.04, "unit": "µM"}
    ]},
    {"compound": "CCN(CC)[C@H]1CC[C@@H]2CN(S(=O)(=O)c3ccc(C(F)(F)F)cc3Cl)C[C@@H]21", "note": "[Example 294, (3aR,4S,6aS)-2-{[2-chloro-4-(trifluoromethyl)phenyl]sulfonyl}-N,N-diethyloctahydrocyclopenta[c]pyrrol-4-amine]", "values": [
      {"measurement": "IC50", "setting": "[1]", "result": 7.8, "unit": "µM"}
    ]},
    {"compound": "Cc1cccc(CN2C[C@H]3CC[C@H](NC(=O)C(c4ccccc4)C(C)C)[C@H]3C2)c1", "note": "(stereo partly drawn) [Example 91, 3-methyl-N-[(3aR,4S,6aS)-2-(3-methylbenzyl)octahydrocyclopenta[c]pyrrol-4-yl]-2-phenylbutanamide]", "values": [
      {"measurement": "IC50", "setting": "[1]", "result": 1.78, "unit": "µM"}
    ]},
    {"compound": "O=C(N[C@H]1CC[C@H]2CN(Cc3cccc(C(F)(F)F)c3)C[C@H]21)C1CCCC1", "note": "(relative stereo) [Example 129, N-{(3aS*,4S*,6aR*)-2-[3-(trifluoromethyl)benzyl]octahydrocyclopenta[c]pyrrol-4-yl}cyclopentanecarboxamide]", "values": [
      {"measurement": "IC50", "result": 2.31, "unit": "µM"}
    ]},
    {"compound": "N^1-[(3aR,4S,6aS)-2-(4-fluorobenzyl)octahydrocyclopenta[c]pyrrol-4-yl]-N^2-methyl-L-norvalinamide [Example 378]", "values": [
      {"measurement": "IC50", "setting": "[1]", "result": "> 30", "unit": "µM"}
    ]},
    {"compound": "O=C(N[C@H]1CC[C@H]2CN(CCCc3cccc(F)c3)C[C@H]21)C(C1CCCCC1)C1CCCCC1", "note": "[Example 68, 2,2-dicyclohexyl-N-{(3aS,4S,6aR)-2-[3-(3-fluorophenyl)propyl]octahydrocyclopenta[c]pyrrol-4-yl}acetamide]", "values": [
      {"measurement": "IC50", "result": 0.82, "unit": "µM"}
    ]},
    {"compound": "CC(C)COC(=O)N[C@@H](CC(C)C)C(=O)N[C@@H]1CC[C@H]2CN(Cc3cccc(C(F)(F)F)c3)C[C@H]21", "note": "[Example 178, isobutyl (S)-4-methyl-1-oxo-1-((3aS,4R,6aR)-2-(3-(trifluoromethyl)benzyl)octahydrocyclopenta[c]pyrrol-4-ylamino)pentan-2-ylcarbamate]", "values": [
      {"measurement": "IC50", "result": 1, "unit": "µM"}
    ]},
    {"compound": "CN[C@@H](CC(C)C)C(=O)N[C@@H]1CC[C@H]2CN(Cc3ccc(F)cc3)C[C@H]21", "note": "[Example 450, N^1-[(3aS,4R,6aR)-2-(4-fluorobenzyl)octahydrocyclopenta[c]pyrrol-4-yl]-N^2-methyl-L-leucinamide]", "values": [
      {"measurement": "IC50", "setting": "[1]", "result": 9.26, "unit": "µM"}
    ]},
    {"compound": "O=C(N[C@H]1CC[C@H]2CN(Cc3cccc(OC(F)(F)F)c3)C[C@H]21)C(C1CCCCC1)C1CCCCC1", "note": "[Example 63, 2,2-dicyclohexyl-N-{(3aS,4S,6aR)-2-[3-(trifluoromethoxy)benzyl]octahydrocyclopenta[c]pyrrol-4-yl}acetamide]", "values": [
      {"measurement": "IC50", "result": 0.51, "unit": "µM"}
    ]},
    {"compound": "O=C(CC(c1ccc(F)cc1)c1ccc(F)cc1)N[C@H]1CC[C@H]2CN(Cc3cccc(C(F)(F)F)c3)C[C@H]21", "note": "(relative stereo) [Example 133, 3,3-bis(4-fluorophenyl)-N-{(3aS*,4S*,6aR*)-2-[3-(trifluoromethyl)benzyl]octahydrocyclopenta[c]pyrrol-4-yl}propanamide]", "values": [
      {"measurement": "IC50", "setting": "[1]", "result": 0.69, "unit": "µM"}
    ]},
    {"compound": "O=S(=O)(N[C@@H]1CC[C@@H]2CN(Cc3cccc(C(F)(F)F)c3)C[C@@H]21)c1cccc(C(F)(F)F)c1", "note": "[Example 188, 3-(trifluoromethyl)-N-{(3aR,4R,6aS)-2-[3-(trifluoromethyl)benzyl]octahydrocyclopenta[c]pyrrol-4-yl}benzenesulfonamide]", "values": [
      {"measurement": "IC50", "result": 0.85, "unit": "µM"}
    ]},
    {"compound": "CCC[C@H](NC)C(=O)N[C@H]1CC[C@H]2CN(Cc3ccccc3)C[C@H]21", "note": "[Example 359, N^1-[(3aS,4S,6aR)-2-benzyloctahydrocyclopenta[c]pyrrol-4-yl]-N^2-methyl-L-norvalinamide]", "values": [
      {"measurement": "IC50", "result": "> 30", "unit": "µM"}
    ]},
    {"compound": "FC(F)(F)c1cccc(N2C[C@H]3CC[C@H](NCc4c[nH]nc4-c4ccc(Cl)cc4)[C@H]3C2)n1", "note": "[Example 666, (3aR,4S,6aS)-N-{[3-(4-chlorophenyl)-1H-pyrazol-4-yl]methyl}-2-[6-(trifluoromethyl)pyridin-2-yl]octahydrocyclopenta[c]pyrrol-4-amine]", "values": [
      {"measurement": "IC50", "result": 1.37, "unit": "µM"}
    ]},
    {"compound": "CCC[C@H](NC)C(=O)N[C@@H]1CC[C@H]2CN(Cc3ccc(F)cc3)C[C@H]21", "note": "[Example 372, N^1-[(3aS,4R,6aR)-2-(4-fluorobenzyl)octahydrocyclopenta[c]pyrrol-4-yl]-N^2-methyl-L-norvalinamide]", "values": [
      {"measurement": "IC50", "result": "> 9", "unit": "µM"}
    ]},
    {"compound": "CN[C@@H](CC(C)C)C(=O)N[C@H]1CC[C@@H]2CN(c3ccccc3F)C[C@@H]21", "note": "[Example 619, N-[(3aR,4S,6aS)-2-(2-fluorophenyl)octahydrocyclopenta[c]pyrrol-4-yl]-N^2-methyl-L-leucinamide]", "values": [
      {"measurement": "IC50", "result": 2.84, "unit": "µM"}
    ]},
    {"compound": "CC(C)C[C@H](C(=O)N[C@@H]1CC[C@H]2CN(Cc3cccc(C(F)(F)F)c3)C[C@H]21)N(C)C(=O)OC(C)(C)C", "note": "(relative stereo) [Example 150, N^2-(tert-butyloxycarbonyl)-N^2-methyl-N^1-{(3aS*,4R*,6aR*)-2-[3-(trifluoromethyl)benzyl]octahydrocyclopenta[c]pyrrol-4-yl}-D-leucinamide]", "values": [
      {"measurement": "IC50", "setting": "[1]", "result": 0.51, "unit": "µM"}
    ]},
    {"compound": "CC(C)C[C@@H](C(=O)N[C@@H]1CC[C@H]2CN(Cc3cccc(C(F)(F)F)c3)C[C@H]21)N(C)C(=O)OC(C)(C)C", "note": "[Example 155, N^2-(tert-butyloxycarbonyl)-N^2-methyl-N^1-{(3aS,4R,6aR)-2-[3-(trifluoromethyl)benzyl]octahydrocyclopenta[c]pyrrol-4-yl}-L-leucinamide]", "values": [
      {"measurement": "IC50", "setting": "[1]", "result": 0.69, "unit": "µM"}
    ]},
    {"compound": "O=S(=O)(c1cccc(C(F)(F)F)c1)N1C[C@@H]2CC[C@@H](NC(c3ccccc3)c3ccccc3)[C@@H]2C1", "note": "[Example 467, (3aS,4R,6aR)-N-benzhydryl-2-{[3-(trifluoromethyl)phenyl]sulfonyl}octahydrocyclopenta[c]pyrrol-4-amine]", "values": [
      {"measurement": "IC50", "setting": "[1]", "result": 3.5, "unit": "µM"}
    ]},
    {"compound": "CC(C)C[C@@H](C(=O)N[C@@H]1CC[C@H]2CNC[C@H]21)N(C)C(=O)OC(C)(C)C", "note": "[Example 349, tert-butyl methyl((S)-4-methyl-1-((3aS,4R,6aR)-octahydrocyclopenta[c]pyrrol-4-ylamino)-1-oxopentan-2-yl)carbamate]", "values": [
      {"measurement": "IC50", "setting": "[1]", "result": 17.6, "unit": "µM"}
    ]},
    {"compound": "CC(C)C(C(=O)N[C@H]1CC[C@@H]2CN(Cc3ccccc3)C[C@@H]21)c1ccc(Cl)cc1", "note": "(stereo partly drawn) [Example 43, N-[(3aR,4S,6aS)-2-benzyloctahydrocyclopenta[c]pyrrol-4-yl]-2-(4-chlorophenyl)-3-methylbutanamide]", "values": [
      {"measurement": "IC50", "setting": "[1]", "result": 1.49, "unit": "µM"}
    ]}
  ]
}
